Reference: PubChem BioAssay AID1259407 (Chemical Carcinogenesis Research Information System (CCRIS), 2018)
Activity calls are given as the source filed them. How the calls were made is not given here.

Tested on: CCRIS mutagenicity, Ames/micronucleus/aberration tests
Test: CCRIS mutagenicity studies
[1] = Test System: AMES SALMONELLA TYPHIMURIUM, Strain/Indicator: TA100, Metabolic Activation: NONE, Method: STANDARD PLATE

Measured: mutagenic call

OC[C@H]1OC(O[C@H]2[C@H](O)[C@@H](O)C(O[C@H]3[C@H](O)[C@@H](O)[C@@H](O)O[C@@H]3CO)O[C@@H]2CO)[C@H](O)[C@@H](O)[C@@H]1O (some centres not stated)
inactive: Test System: AMES SALMONELLA TYPHIMURIUM, Strain/Indicator: TA98, Metabolic Activation: NONE, Method: STANDARD PLATE inactive; negative | Test System: AMES SALMONELLA TYPHIMURIUM, Strain/Indicator: TA98, Metabolic Activation: RAT, LIVER, S-9, Method: STANDARD PLATE inactive; negative | [1] inactive; negative | Test System: AMES SALMONELLA TYPHIMURIUM, Strain/Indicator: TA100, Metabolic Activation: RAT, LIVER, S-9, Method: STANDARD PLATE inactive; negative | Test System: AMES SALMONELLA TYPHIMURIUM, Strain/Indicator: TA1535, Metabolic Activation: NONE, Method: STANDARD PLATE inactive; negative | Test System: AMES SALMONELLA TYPHIMURIUM, Strain/Indicator: TA1535, Metabolic Activation: RAT, LIVER, S-9, Method: STANDARD PLATE inactive; negative | Test System: AMES SALMONELLA TYPHIMURIUM, Strain/Indicator: TA1537, Metabolic Activation: NONE, Method: STANDARD PLATE inactive; negative | Test System: AMES SALMONELLA TYPHIMURIUM, Strain/Indicator: TA1537, Metabolic Activation: RAT, LIVER, S-9, Method: STANDARD PLATE inactive; negative | Test System: E. COLI, Strain/Indicator: WP2 UVRA, Metabolic Activation: NONE, Method: STANDARD PLATE inactive; negative | Test System: E. COLI, Strain/Indicator: WP2 UVRA, Metabolic Activation: RAT, LIVER, S-9, Method: STANDARD PLATE inactive; negative

CC(=O)ON(OCc1ccc([N+](=O)[O-])cc1)C(=O)c1ccccc1
active: [1] active; positive | Test System: AMES SALMONELLA TYPHIMURIUM, Strain/Indicator: TA100, Metabolic Activation: RAT, S-9, AROCLOR, Method: STANDARD PLATE active; positive

O=C/C=C/c1ccco1
inactive: Test System: AMES SALMONELLA TYPHIMURIUM, Strain/Indicator: TA97, Metabolic Activation: HAMSTER, LIVER, S-9, AROCLOR 1254 (10%), Method: PREINCUBATION inactive; negative | Test System: AMES SALMONELLA TYPHIMURIUM, Strain/Indicator: TA97, Metabolic Activation: HAMSTER, LIVER, S-9, AROCLOR 1254 (30%), Method: PREINCUBATION inactive; negative | Test System: AMES SALMONELLA TYPHIMURIUM, Strain/Indicator: TA97, Metabolic Activation: NONE, Method: PREINCUBATION inactive; negative | Test System: AMES SALMONELLA TYPHIMURIUM, Strain/Indicator: TA97, Metabolic Activation: RAT, LIVER, S-9, AROCLOR 1254 (10%), Method: PREINCUBATION inactive; negative | Test System: AMES SALMONELLA TYPHIMURIUM, Strain/Indicator: TA97, Metabolic Activation: RAT, LIVER, S-9, AROCLOR 1254 (30%), Method: PREINCUBATION inactive; negative | Test System: AMES SALMONELLA TYPHIMURIUM, Strain/Indicator: TA98, Metabolic Activation: HAMSTER, LIVER, S-9, AROCLOR 1254 (10 OR 30%), Method: PREINCUBATION inactive; negative | Test System: AMES SALMONELLA TYPHIMURIUM, Strain/Indicator: TA98, Metabolic Activation: NONE, Method: PREINCUBATION inactive; negative | Test System: AMES SALMONELLA TYPHIMURIUM, Strain/Indicator: TA98, Metabolic Activation: RAT, LIVER, S-9, AROCLOR 1254 (10 OR 30%), Method: PREINCUBATION inactive; negative | Test System: AMES SALMONELLA TYPHIMURIUM, Strain/Indicator: TA100(NR), Metabolic Activation: NONE, Method: PREINCUBATION inactive; negative | Test System: AMES SALMONELLA TYPHIMURIUM, Strain/Indicator: TA100, Metabolic Activation: HAMSTER, LIVER, S-9, AROCLOR 1254 (10%), Method: PREINCUBATION inactive; negative | Test System: AMES SALMONELLA TYPHIMURIUM, Strain/Indicator: TA100, Metabolic Activation: HAMSTER, LIVER, S-9, AROCLOR 1254 (30%), Method: PREINCUBATION inactive; negative | Test System: AMES SALMONELLA TYPHIMURIUM, Strain/Indicator: TA100, Metabolic Activation: NONE, Method: PREINCUBATION inactive; negative | Test System: AMES SALMONELLA TYPHIMURIUM, Strain/Indicator: TA100, Metabolic Activation: RAT, LIVER, S-9, AROCLOR 1254 (10%), Method: PREINCUBATION inactive; negative | Test System: AMES SALMONELLA TYPHIMURIUM, Strain/Indicator: TA100, Metabolic Activation: RAT, LIVER, S-9, AROCLOR 1254 (30%), Method: PREINCUBATION inactive; negative | Test System: AMES SALMONELLA TYPHIMURIUM, Strain/Indicator: TA100, Metabolic Activation: RAT, LIVER, S-9, AROCLOR 1254, Method: PREINCUBATION inactive; negative | Test System: AMES SALMONELLA TYPHIMURIUM, Strain/Indicator: TA1535, Metabolic Activation: HAMSTER, LIVER, S-9, AROCLOR 1254 (10%), Method: PREINCUBATION inactive; negative | Test System: AMES SALMONELLA TYPHIMURIUM, Strain/Indicator: TA1535, Metabolic Activation: HAMSTER, LIVER, S-9, AROCLOR 1254 (30%), Method: PREINCUBATION inactive; negative | Test System: AMES SALMONELLA TYPHIMURIUM, Strain/Indicator: TA1535, Metabolic Activation: NONE, Method: PREINCUBATION inactive; negative | Test System: AMES SALMONELLA TYPHIMURIUM, Strain/Indicator: TA1535, Metabolic Activation: RAT, LIVER, S-9, AROCLOR 1254 (10%), Method: PREINCUBATION inactive; negative | Test System: AMES SALMONELLA TYPHIMURIUM, Strain/Indicator: TA1535, Metabolic Activation: RAT, LIVER, S-9, AROCLOR 1254 (30%), Method: PREINCUBATION inactive; negative
